From paper PMC10762035, “Molecular basis of human trace amine-associated receptor 1 activation” (Nature Communications, 2024)
Positions count from the first letter of the chain named. Values joined by “and” are separate entries in the source; they are usually repeats but may differ in a detail not shown here. Equal entries are not always repeated. Where two headings read alike, the source gives them in different places.

Legend:
Type in all cases: cell-based
hTA1 C13S = target: T1, hTA1 C13S (Homo sapiens, UniProt Q96RJ0, C13S); test: GloSensor cAMP accumulation assay, C13S mutant
T1 construct: expressed in transfected cells; host or cells: HEK293T
T1 sequence (Q96RJ0 1-339 C13S): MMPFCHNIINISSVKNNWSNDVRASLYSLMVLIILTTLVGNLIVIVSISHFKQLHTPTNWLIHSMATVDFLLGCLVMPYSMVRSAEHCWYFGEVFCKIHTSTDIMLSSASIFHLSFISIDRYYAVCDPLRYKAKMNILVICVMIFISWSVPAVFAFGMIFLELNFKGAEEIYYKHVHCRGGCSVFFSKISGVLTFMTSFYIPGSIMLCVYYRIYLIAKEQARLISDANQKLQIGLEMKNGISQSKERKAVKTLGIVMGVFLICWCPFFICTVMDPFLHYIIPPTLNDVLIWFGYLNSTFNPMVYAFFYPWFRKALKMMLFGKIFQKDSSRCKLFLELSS

hTA1 C5S = target: T2, hTA1 C5S (Homo sapiens, UniProt Q96RJ0, C5S); test: GloSensor cAMP accumulation assay, C5S mutant; settings: for C5S - Normalized Luminescence Counts (N=2): log[Compound], single wells
T2 construct: expressed in transfected cells; host or cells: HEK293T
T2 sequence (Q96RJ0 1-339 C5S): T1 sequence (Q96RJ0 1-339 C13S) with C5S, S13C

hTA1 V184P = target: T3, hTA1 V184P (Homo sapiens, UniProt Q96RJ0, V184P); test: GloSensor cAMP accumulation assay, V184P mutant; settings: for cAMP accumulation response, single replicate values (source data, Supplementary Figure 5): hTA1 V184P (N=2), log[Compound]
T3 construct: expressed in transfected cells; host or cells: HEK293T
T3 sequence (Q96RJ0 1-339 V184P): T1 sequence (Q96RJ0 1-339 C13S) with S13C, V184P

hTA1 W264F = target: T4, hTA1 W264F (Homo sapiens, UniProt Q96RJ0, W264F); test: GloSensor cAMP accumulation assay, W264F mutant;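 also: cells transiently transfected with receptor plus GloSensor, luminescence read 30 min after agonist addition at room temperature, concentration-response curves fitted by log(agonist) vs response regression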
T4 construct: expressed in transfected cells; host or cells: HEK293T
T4 sequence (Q96RJ0 1-339 W264F): T1 sequence (Q96RJ0 1-339 C13S) with S13C, W264F

hTA1 C178S = target: T5, hTA1 C178S (Homo sapiens, UniProt Q96RJ0, C178S); test: GloSensor cAMP accumulation assay, C178S mutant; settings: for C178S - Normalized Luminescence Counts (N=2): log[Compound], single replicates
T5 construct: expressed in transfected cells; host or cells: HEK293T
T5 sequence (Q96RJ0 1-339 C178S): T1 sequence (Q96RJ0 1-339 C13S) with S13C, C178S

[1] = hTA1 V184P mutant minus WT average

CCc1[nH]nc(C(=O)Nc2ccc([C@H]3CNCCO3)cc2)c1C [ralmitaront]
ΔpEC50 values (each mutant value - WT average) (hTA1 C13S; C13S): -0.1563 and -0.05083 | Emax values (hTA1 C13S; C13S, Mean of fit per experiment): 28.9629 | Emax (hTA1 C13S; C13S, Mean of fit per experiment, read-out: Emax values): 23.8% | Emax (hTA1 C13S; C13S, n=2, read-out: Span ± SEM (Emax normalized to β-PEA)): 26.4 ± 2.6% | C13S - Normalized Luminescence Counts (N=2) (hTA1 C13S; log[Compound], M = -5, single wells): 24.7419 and 34.2578 and 19.4511 and 28.8102 and 35.1294 and 22.0805 | Emax (hTA1 C5S; C5S, n=2, read-out: Span ± SEM (Emax normalized to β-PEA)): 53 ± 3.33% | ΔEmax values (each mutant value - WT average), Mean (hTA1 C5S; hTA1 C5S minus WT average): 16.2371 and 9.571 | ΔpEC50 values (each mutant value - WT average), Mean (hTA1 C5S; hTA1 C5S minus WT average): -0.2888 and -0.07449 | Emax values, Mean (hTA1 C5S; hTA1 C5S, β-PEA = 100, mean of 3 replicates, one line per independent experiment): 49.6851 | Emax (hTA1 C5S; hTA1 C5S, β-PEA = 100, mean of 3 replicates, one line per independent experiment, read-out: Emax values, Mean): 56.4% | C5S - Normalized Luminescence Counts (N=2) (hTA1 C5S; M = -5): 56.5093 and 57.6833 and 45.4685 and 47.3256 and 58.0276 and 41.5948 | C5S - Normalized Luminescence Counts (N=2) (hTA1 C5S; M = -5.522): 55.6739 and 48.0198 and 44.2267 and 42.3543 and 55.8182 and 41.3187 | C5S - Normalized Luminescence Counts (N=2) (hTA1 C5S; M = -6): 54.1385 and 48.494 and 48.3811 and 37.8664 and 46.5661 and 38.2116 | C5S - Normalized Luminescence Counts (N=2) (hTA1 C5S; M = -6.522): 36.3243 and 27.5639 and 26.277 and 37.3831 and 32.0666 and 36.4855 | C5S - Normalized Luminescence Counts (N=2) (hTA1 C5S; M = -7): 17.0199 and 14.6491 and 16.7715 and 16.6005 and 20.1908 and 19.0861 | reduction in potency vs wild type (hTA1 V184P; V184P): 2.5 fold | Emax (hTA1 V184P; V184P, n=2, read-out: Span ± SEM (Emax normalized to β-PEA)): 48.73 ± 0.14% | cAMP accumulation response, single replicate values (source data, Supplementary Figure 5) (hTA1 V184P; M = -5): 56.1002 and 44.9467 and 51.6388 and 50.9599 and 51.6929 and 37.8383 | cAMP accumulation response, single replicate values (source data, Supplementary Figure 5) (hTA1 V184P; M = -5.522): 38.6425 and 44.6557 and 34.0841 and 47.4046 and 55.1382 and 34.8694 | cAMP accumulation response, single replicate values (source data, Supplementary Figure 5) (hTA1 V184P; M = -6): 32.8233 and 40.4853 and 30.6896 and 36.9953 and 42.3832 and 37.3618 | cAMP accumulation response, single replicate values (source data, Supplementary Figure 5) (hTA1 V184P; M = -6.522): 24.4824 and 25.4523 and 22.4457 and 22.8108 and 28.9684 and 21.7112 | cAMP accumulation response, single replicate values (source data, Supplementary Figure 5) (hTA1 V184P; M = -7): 14.7837 and 10.7102 and 14.2987 and 13.3178 and 19.622 and 12.4015 | cAMP accumulation response, single replicate values (source data, Supplementary Figure 5) (hTA1 V184P; M = -7.522): 3.727 and 4.406 and 3.242 and 4.485 and 6.5 and 5.731 | cAMP accumulation response, single replicate values (source data, Supplementary Figure 5) (hTA1 V184P; M = -8): 0.5265 and 1.302 and 1.5934 and 2.432 and 2.322 and 1.296 | cAMP accumulation response, single replicate values (source data, Supplementary Figure 5) (hTA1 V184P; M = -8.522): 0.2356 and -0.3463 and -0.05538 and 1.699 and 1.076 and 0.2329 | cAMP accumulation response, single replicate values (source data, Supplementary Figure 5) (hTA1 V184P; M = -9): 0.3326 and -0.2494 and -1.025 and -0.1703 and -0.2803 and -0.5368 | cAMP accumulation response, single replicate values (source data, Supplementary Figure 5) (hTA1 V184P; M = -9.522): -0.8313 and -0.9283 and -1.316 and -0.5002 and -0.3902 and -0.3169 | cAMP accumulation response, single replicate values (source data, Supplementary Figure 5) (hTA1 V184P; M = -10): -1.122 (2×) and -0.3463 and -0.94 and -0.3902 and -1.3432 | cAMP accumulation response, single replicate values (source data, Supplementary Figure 5) (hTA1 V184P; M = -10.522): -0.9283 and -1.025 and -1.219 and -0.9034 and -1.123 and -1.673 | cAMP accumulation response, single replicate values (source data, Supplementary Figure 5) (hTA1 V184P; M = -11): -0.9283 and -1.607 (2×) and -0.3902 (2×) and -0.1703 | cAMP accumulation response, single replicate values (source data, Supplementary Figure 5) (hTA1 V184P; M = -11.522): -1.607 (2×) and -1.898 and 0.746 and -0.02371 and -0.5002 | cAMP accumulation response, single replicate values (source data, Supplementary Figure 5) (hTA1 V184P; M = -12): -1.607 and -1.219 and -1.51 and -0.6835 and 0.4894 and -0.5735 | cAMP accumulation response, single replicate values (source data, Supplementary Figure 5) (hTA1 V184P; M = -12.522): -0.7343 and -1.4132 and -1.025 and -0.6835 and -0.7568 and -1.087 | ΔEmax values (each mutant value - WT average), Mean (hTA1 V184P; [1]): 8.48 and 8.751 | ΔpEC50 values (each mutant value - WT average), Mean (hTA1 V184P; [1]): -0.4311 and -0.3552 | Emax values, Mean (hTA1 V184P; hTA1 V184P mutant, β-PEA set to 100, each grid row a separate experiment, 3 replicates): 48.8655 | Emax (hTA1 V184P; hTA1 V184P mutant, β-PEA set to 100, each grid row a separate experiment, 3 replicates, read-out: Emax values (Mean)): 48.6% | ΔEmax values (each mutant value - WT average) (hTA1 W264F; W246F mutant (so in the source) minus WT average): -7.264 | Emax values, Mean (hTA1 W264F; W246F mutant (so in the source), β-PEA = 100, each line an independent experiment, 3 replicates): 47.4013 | Emax (hTA1 W264F; W246F mutant (so in the source), β-PEA = 100, each line an independent experiment, 3 replicates, read-out: Emax values (Mean)): 32.8% | Emax (hTA1 W264F; W264F, n=2, read-out: Span ± SEM (Emax normalized to β-PEA)): 40.1 ± 7.28% | ΔpEC50 values (each mutant value - WT average), Mean (hTA1 C178S; C178S, each row one experiment (N=2), 3 replicates): -0.4487 and -0.0445 | Emax (hTA1 C178S; C178S, n=2, read-out: Span ± SEM (Emax normalized to β-PEA)): 69.5 ± 2.9% | Emax (hTA1 C178S; C178S, relative to β-PEA, read-out: Emax): 69.5% | Emax values, Mean (hTA1 C178S; C178S, β-PEA = 100, each row one experiment (N=2), 3 replicates): 72.4383 | Emax (hTA1 C178S; C178S, β-PEA = 100, each row one experiment (N=2), 3 replicates, read-out: Emax values, Mean): 66.6% | C178S - Normalized Luminescence Counts (N=2) (hTA1 C178S; M = -5): 73.8012 and 62.4927 and 60.9506 and 66.8043 and 64.022 and 61.0303 | C178S - Normalized Luminescence Counts (N=2) (hTA1 C178S; M = -5.522): 57.6328 and 63.2871 and 59.3151 and 75.9888 and 75.2109 and 62.2569 | C178S - Normalized Luminescence Counts (N=2) (hTA1 C178S; M = -6): 43.2869 and 48.3804 and 55.2496 and 74.2835 and 69.4968 | C178S - Normalized Luminescence Counts (N=2) (hTA1 C178S; M = -6.522): 30.9035 and 28.8942 and 35.67 and 44.4265 and 49.1234 and 56.9916 | C178S - Normalized Luminescence Counts (N=2) (hTA1 C178S; M = -7): 14.8753 and 16.3239 and 23.7072 and 27.2542 and 34.494 and 27.6431 | C178S - Normalized Luminescence Counts (N=2) (hTA1 C178S; M = -7.522): 4.642 and 7.866 and 7.3986 and 13.4924 and 12.7145 and 13.5821 | C178S - Normalized Luminescence Counts (N=2) (hTA1 C178S; M = -8): 1.277 and 2.445 and 2.959 and 5.594 and 6.073 and 4.936 | C178S - Normalized Luminescence Counts (N=2) (hTA1 C178S; M = -8.522): -0.2183 and 0.7163 and 2.0247 and 0.7179 and 1.526 and 2.842 | C178S - Normalized Luminescence Counts (N=2) (hTA1 C178S; M = -9): -0.3585 and 0.1555 and -0.03139 and 0.4785 and 0.3289 and 2.214 | C178S - Normalized Luminescence Counts (N=2) (hTA1 C178S; M = -9.522): -1.433 and 1.137 and -0.6389 and -0.0001415 and -0.6284 and -0.3292 | C178S - Normalized Luminescence Counts (N=2) (hTA1 C178S; M = -10): -1.1529 and -1.2 and -1.106 and 0.05969 and -0.9575 and -1.5259 | C178S - Normalized Luminescence Counts (N=2) (hTA1 C178S; M = -10.522): -0.5454 and -0.2183 and -0.8258 and -2.334 and -1.855 and -2.154 | C178S - Normalized Luminescence Counts (N=2) (hTA1 C178S; M = -11): -0.3585 and -0.2183 and -0.4987 and 0.6281 and 0.3589 and 0.4785 | C178S - Normalized Luminescence Counts (N=2) (hTA1 C178S; M = -11.522): -0.3585 and -0.07812 and 0.1555 and 0.5384 and -0.08989 and -0.419 | C178S - Normalized Luminescence Counts (N=2) (hTA1 C178S; M = -12): -0.966 (2×) and -0.3585 and -0.8079 and -2.005 and -0.9874 | C178S - Normalized Luminescence Counts (N=2) (hTA1 C178S; M = -12.522): 1.09 and -0.2183 and -0.8725 and 0.3888 and -1.137 and -2.364
